Data published in article PMC6254361, “The properties of Msh2–Msh6 ATP binding mutants suggest a signal amplification mechanism in DNA mismatch repair” (The Journal of Biological Chemistry, 2018).

Target: T1, Msh2–Msh6 (Saccharomyces cerevisiae, UniProt P25847+Q03834)
T1 sequence (P25847 1-964): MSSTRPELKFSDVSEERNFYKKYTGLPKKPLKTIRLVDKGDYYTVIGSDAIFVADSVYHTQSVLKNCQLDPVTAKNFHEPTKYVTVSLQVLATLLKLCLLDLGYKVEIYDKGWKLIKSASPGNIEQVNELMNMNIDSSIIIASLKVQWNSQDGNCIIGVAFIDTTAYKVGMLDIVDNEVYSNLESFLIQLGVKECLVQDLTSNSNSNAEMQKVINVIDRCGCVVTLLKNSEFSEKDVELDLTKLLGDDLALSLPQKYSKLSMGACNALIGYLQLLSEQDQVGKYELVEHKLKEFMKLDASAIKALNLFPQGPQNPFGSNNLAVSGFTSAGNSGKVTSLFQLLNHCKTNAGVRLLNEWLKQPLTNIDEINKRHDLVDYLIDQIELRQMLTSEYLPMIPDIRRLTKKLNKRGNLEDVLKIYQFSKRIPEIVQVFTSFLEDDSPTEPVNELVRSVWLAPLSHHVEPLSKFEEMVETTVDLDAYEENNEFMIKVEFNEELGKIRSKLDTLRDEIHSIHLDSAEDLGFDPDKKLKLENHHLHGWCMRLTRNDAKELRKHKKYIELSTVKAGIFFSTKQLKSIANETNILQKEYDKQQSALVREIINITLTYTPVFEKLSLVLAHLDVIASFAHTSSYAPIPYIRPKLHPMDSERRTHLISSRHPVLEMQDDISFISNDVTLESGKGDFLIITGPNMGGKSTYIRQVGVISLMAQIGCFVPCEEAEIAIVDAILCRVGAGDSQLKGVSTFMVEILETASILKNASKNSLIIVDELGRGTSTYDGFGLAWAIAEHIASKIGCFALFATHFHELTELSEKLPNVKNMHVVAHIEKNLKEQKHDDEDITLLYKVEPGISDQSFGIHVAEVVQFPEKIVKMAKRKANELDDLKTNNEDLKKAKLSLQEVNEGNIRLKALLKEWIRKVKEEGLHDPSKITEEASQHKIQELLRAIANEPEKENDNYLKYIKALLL
T1 sequence (Q03834 1-1242): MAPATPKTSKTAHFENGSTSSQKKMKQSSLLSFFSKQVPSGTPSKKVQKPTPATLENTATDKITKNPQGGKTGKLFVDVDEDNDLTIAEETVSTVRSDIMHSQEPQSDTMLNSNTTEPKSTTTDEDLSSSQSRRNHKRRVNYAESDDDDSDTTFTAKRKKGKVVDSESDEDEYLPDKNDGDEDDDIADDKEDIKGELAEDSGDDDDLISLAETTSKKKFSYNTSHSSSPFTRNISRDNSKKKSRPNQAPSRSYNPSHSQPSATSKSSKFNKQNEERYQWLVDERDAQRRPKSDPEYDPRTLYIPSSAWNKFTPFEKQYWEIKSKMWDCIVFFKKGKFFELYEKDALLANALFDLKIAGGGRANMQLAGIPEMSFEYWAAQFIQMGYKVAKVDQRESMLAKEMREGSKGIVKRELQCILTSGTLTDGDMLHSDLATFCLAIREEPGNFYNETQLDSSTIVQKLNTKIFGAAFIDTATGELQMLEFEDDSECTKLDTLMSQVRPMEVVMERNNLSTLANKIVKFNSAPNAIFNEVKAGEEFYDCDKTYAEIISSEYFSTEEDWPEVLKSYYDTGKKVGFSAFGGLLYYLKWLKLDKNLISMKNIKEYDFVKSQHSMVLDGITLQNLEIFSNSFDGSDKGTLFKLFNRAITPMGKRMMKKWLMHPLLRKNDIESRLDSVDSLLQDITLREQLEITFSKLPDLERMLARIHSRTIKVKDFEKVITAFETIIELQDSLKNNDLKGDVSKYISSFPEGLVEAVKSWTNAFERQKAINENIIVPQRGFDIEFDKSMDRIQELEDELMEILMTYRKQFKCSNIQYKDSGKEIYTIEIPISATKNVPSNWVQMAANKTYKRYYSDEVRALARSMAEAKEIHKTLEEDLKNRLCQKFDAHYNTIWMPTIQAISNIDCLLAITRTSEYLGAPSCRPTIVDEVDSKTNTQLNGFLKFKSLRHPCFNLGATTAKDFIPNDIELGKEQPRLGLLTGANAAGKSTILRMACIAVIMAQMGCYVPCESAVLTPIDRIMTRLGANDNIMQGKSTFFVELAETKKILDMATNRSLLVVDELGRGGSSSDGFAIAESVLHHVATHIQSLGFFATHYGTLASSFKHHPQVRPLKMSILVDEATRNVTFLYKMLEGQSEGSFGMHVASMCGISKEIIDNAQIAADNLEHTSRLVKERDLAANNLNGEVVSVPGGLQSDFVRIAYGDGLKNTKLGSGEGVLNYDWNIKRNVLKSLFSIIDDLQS
Test: UV cross-linking of [γ-32P]ATP, SDS-PAGE, phosphorimaging
Assay type: binding
Conditions: labelled compound; reference complex; no Mg2+, EDTA, pH 8, on ice; Msh2 site at 60 μM ATP, Msh6 site at 1 μM ATP

Nc1ncnc2c1ncn2[C@@H]1O[C@H](COP(=O)(O)OP(=O)(O)OP(=O)(O)O)[C@@H](O)[C@H]1O [ATP]
UV cross-linking of [γ-32P]ATP, SDS-PAGE, phosphorimaging: ATP binding at these concentrations was compared with WT Msh2–Msh6
